Measurements published in patent US20230265432A1, “METHODS AND COMPOSITIONS FOR TREATING ACUTE MYELOID LEUKEMIA” (Sanford Burnham Prebys Medical Discovery Institute, priority 2021, published 2023).
Structures can show the parent of a compound that is named as a salt. Where two headings read alike, the source gives them in different places.

Experiments:
[1] = target: Aurora B (Homo sapiens, UniProt Q96GD4); details: cited from earlier work
[2] = target: hERG ion-channel (Homo sapiens, UniProt Q12809); details: cited from earlier work
[3] = target: Aurora C (Homo sapiens, UniProt Q9UQB9); details: cited from earlier work
[4] = test system: MOLM-13 cells; assay: Viability/growth of MOLM-13 cells (CellTiter Glo); format: cell-based; details: RNF5-KD versus control
[5] = test system: MOLM-13 cells; assay: Western blot of apoptotic markers; format: cell-based; details: RNF5-KD versus control
[6] = test system: HL-60 cells; assay: Viability of HL-60 cells expressing pLKO or shRNF5; details: for IC50: Homo sapiens, HL-60, 48 h
[7] = target: MLL1 (Homo sapiens, UniProt Q03164); details: cited from earlier work
[8] = test system: PI3K; details: cited from earlier work
[9] = test system: MCF-7 cells; details: cited from earlier work
[10] = target: nuclear receptor coactivator 3 (Homo sapiens, UniProt Q9Y6Q9); details: cited from earlier work
[11] = target: Flt3 (Homo sapiens, UniProt P36888); details: cited from earlier work
[12] = target: RET (Homo sapiens, UniProt P07949); details: cited from earlier work
[13] = test system: TNF-a; details: control 325 pg/ml, cited from earlier work
[14] = target: BRD4 (Homo sapiens, UniProt O60885); details: cited from earlier work
[15] = test system: HDAC1A; details: cited from earlier work
[16] = test system: HDAC1B; details: cited from earlier work
[17] = target: PARP1 (Homo sapiens, UniProt P09874); details: cited from earlier work
[18] = target: DNMT3B (Homo sapiens, UniProt Q9UBC3); details: cited from earlier work
[19] = test system: BRD2, BRD3, and BRD4; details: cited from earlier work
[20] = target: Aurora A (Homo sapiens, UniProt O14965); details: cited from earlier work
[21] = target: SET7/9 (Homo sapiens, UniProt Q8WTS6); details: cited from earlier work
[22] = test system: U937 leukemia cell line; details: proliferation; cited from earlier work
[23] = test system: SK-BR-3 breast-derived cell line; details: proliferation; cited from earlier work
[24] = test system: HT29; details: cited from earlier work
[25] = test system: maize HD1-A; details: cited from earlier work
[26] = target: HIF-1alpha prolyl hydroxylase-2 (PHD2) (Homo sapiens, UniProt Q9GZT9); details: cited from earlier work
[27] = target: menin-MLL fusion protein interaction (Homo sapiens, UniProt O00255); details: cited from earlier work
[28] = test system: U937 cells expressing an inducible shRNF5 vector; assay: Small molecule epigenetic regulator screen; format: cell-based; details: 0.5 μM or 5 μM, 6 days, +Dox versus −Dox
[29] = test system: U937 cells; assay: Viability/growth of U937 cells (CellTiter Glo); format: cell-based; details: RNF5-KD U937, 24 h
[30] = target: O6-alkylguanine-DNA-alkyltransferase (Homo sapiens, UniProt P16455); details: cited from earlier work
[31] = target: HAT PCAF (p300/CREB-binding protein-associated factor) (Homo sapiens, UniProt Q92831); details: cited from earlier work
[32] = test system: Colo205; details: proliferation; cited from earlier work
[33] = test system: HCT116; details: proliferation; cited from earlier work
[34] = target: T1, SIRT1 (Homo sapiens, UniProt Q96EB6); details: cited from earlier work
T1 sequence (Q96EB6 1-747): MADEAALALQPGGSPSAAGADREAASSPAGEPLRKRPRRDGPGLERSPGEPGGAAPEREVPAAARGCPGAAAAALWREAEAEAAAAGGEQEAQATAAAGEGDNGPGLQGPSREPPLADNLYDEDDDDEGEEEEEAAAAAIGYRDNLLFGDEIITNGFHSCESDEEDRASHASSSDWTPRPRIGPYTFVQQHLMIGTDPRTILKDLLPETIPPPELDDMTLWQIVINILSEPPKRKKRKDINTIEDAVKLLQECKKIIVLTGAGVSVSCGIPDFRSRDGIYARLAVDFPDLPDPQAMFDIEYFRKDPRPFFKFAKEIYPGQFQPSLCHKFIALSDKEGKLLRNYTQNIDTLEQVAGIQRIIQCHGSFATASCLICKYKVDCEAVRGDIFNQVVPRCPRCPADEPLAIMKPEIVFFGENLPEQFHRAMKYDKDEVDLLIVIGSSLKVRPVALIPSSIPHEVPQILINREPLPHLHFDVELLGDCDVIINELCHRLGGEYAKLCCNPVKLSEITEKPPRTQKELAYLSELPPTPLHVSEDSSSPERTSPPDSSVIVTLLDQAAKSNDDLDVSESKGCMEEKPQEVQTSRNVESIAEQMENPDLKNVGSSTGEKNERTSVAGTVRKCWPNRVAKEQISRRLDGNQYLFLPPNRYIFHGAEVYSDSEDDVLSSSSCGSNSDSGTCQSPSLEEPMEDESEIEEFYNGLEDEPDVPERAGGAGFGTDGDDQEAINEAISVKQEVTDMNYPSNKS

[35] = test system: metastatic breast cancer MDA-MB 231 cell; details: cited from earlier work
[36] = test system: HL-60; details: cytotoxic; cited from earlier work
[37] = target: PAD3 (Homo sapiens, UniProt Q9ULW8); details: cited from earlier work
[38] = target: PAD1 (Homo sapiens, UniProt Q9ULC6); details: cited from earlier work
[39] = test system: quinone reductase-1; details: in mouse hepatoma cells; cited from earlier work
[40] = test system: RhoA/C-mediated, SRF-driven luciferase expression in PCS prostate cancer cells; details: cited from earlier work

Sequence of HAT PCAF (p300/CREB-binding protein-associated factor) (Q92831 whole entry): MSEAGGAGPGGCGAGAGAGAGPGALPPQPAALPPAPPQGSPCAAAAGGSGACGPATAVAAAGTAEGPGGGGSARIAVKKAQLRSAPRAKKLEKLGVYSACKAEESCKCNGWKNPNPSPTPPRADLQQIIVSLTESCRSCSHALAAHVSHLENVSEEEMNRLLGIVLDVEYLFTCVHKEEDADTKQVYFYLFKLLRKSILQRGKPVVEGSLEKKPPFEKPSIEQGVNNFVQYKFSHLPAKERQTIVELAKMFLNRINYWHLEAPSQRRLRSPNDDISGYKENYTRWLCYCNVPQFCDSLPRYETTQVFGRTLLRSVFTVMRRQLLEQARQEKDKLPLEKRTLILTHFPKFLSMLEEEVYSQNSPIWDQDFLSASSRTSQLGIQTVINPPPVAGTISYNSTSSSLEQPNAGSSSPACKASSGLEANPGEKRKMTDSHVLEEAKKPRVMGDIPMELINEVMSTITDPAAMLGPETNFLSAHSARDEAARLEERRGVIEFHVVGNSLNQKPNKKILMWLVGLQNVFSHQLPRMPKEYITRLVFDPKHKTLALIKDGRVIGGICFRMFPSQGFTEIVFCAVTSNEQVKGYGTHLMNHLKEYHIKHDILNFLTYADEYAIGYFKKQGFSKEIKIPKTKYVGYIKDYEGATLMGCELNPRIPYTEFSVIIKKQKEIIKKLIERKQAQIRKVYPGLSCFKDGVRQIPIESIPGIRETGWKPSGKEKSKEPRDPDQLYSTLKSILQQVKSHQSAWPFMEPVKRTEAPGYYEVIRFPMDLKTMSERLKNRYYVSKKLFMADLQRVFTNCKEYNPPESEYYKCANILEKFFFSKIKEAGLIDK
Sequence of menin-MLL fusion protein interaction (O00255 whole entry, the tested form may be a part): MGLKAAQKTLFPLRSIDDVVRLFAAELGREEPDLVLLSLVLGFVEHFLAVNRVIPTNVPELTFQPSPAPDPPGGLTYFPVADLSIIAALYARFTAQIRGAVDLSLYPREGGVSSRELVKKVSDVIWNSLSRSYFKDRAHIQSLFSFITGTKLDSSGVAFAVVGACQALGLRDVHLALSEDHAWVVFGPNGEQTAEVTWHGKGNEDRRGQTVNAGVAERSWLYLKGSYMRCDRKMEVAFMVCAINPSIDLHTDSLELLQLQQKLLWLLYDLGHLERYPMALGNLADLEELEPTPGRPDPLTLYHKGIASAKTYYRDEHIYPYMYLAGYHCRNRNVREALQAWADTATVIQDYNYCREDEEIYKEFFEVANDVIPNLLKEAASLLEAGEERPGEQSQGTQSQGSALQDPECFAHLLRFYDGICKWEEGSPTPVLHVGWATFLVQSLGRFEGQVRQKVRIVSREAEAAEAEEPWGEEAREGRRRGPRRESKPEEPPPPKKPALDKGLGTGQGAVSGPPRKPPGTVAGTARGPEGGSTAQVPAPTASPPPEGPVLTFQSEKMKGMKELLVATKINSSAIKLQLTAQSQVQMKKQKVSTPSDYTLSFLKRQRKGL
Sequence of Aurora A (O14965 whole entry): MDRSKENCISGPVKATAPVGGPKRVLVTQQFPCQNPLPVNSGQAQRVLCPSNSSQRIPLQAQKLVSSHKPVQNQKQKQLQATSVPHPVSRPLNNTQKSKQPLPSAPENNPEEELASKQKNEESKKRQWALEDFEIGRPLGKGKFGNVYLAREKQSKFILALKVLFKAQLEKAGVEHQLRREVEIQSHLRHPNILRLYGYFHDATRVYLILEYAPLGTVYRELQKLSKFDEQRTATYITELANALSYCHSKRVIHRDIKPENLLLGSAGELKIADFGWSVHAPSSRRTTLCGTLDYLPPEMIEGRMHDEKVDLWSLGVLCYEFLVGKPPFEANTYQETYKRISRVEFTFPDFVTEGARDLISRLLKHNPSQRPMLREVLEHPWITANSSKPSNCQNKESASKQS
Sequence of Aurora C (Q9UQB9 whole entry): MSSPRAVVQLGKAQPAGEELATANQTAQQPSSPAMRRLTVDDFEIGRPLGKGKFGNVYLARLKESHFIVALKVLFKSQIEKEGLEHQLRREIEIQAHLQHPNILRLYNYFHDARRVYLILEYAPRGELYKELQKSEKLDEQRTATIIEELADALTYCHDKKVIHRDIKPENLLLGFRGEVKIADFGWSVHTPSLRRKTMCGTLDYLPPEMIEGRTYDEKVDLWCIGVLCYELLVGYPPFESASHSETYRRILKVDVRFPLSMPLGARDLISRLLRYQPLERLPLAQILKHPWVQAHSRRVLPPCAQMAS
Sequence of SET7/9 (Q8WTS6 whole entry, species assumed): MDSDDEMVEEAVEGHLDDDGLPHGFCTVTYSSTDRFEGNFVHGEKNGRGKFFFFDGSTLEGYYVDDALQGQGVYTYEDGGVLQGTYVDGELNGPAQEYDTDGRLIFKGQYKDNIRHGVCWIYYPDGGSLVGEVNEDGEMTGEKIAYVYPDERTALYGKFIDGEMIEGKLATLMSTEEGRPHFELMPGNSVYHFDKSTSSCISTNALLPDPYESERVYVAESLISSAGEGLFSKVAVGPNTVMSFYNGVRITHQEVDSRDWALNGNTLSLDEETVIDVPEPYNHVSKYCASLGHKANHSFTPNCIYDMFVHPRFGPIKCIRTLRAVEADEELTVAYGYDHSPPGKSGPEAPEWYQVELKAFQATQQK
Sequence of HIF-1alpha prolyl hydroxylase-2 (PHD2) (Q9GZT9 whole entry, species assumed, the tested form may be a part): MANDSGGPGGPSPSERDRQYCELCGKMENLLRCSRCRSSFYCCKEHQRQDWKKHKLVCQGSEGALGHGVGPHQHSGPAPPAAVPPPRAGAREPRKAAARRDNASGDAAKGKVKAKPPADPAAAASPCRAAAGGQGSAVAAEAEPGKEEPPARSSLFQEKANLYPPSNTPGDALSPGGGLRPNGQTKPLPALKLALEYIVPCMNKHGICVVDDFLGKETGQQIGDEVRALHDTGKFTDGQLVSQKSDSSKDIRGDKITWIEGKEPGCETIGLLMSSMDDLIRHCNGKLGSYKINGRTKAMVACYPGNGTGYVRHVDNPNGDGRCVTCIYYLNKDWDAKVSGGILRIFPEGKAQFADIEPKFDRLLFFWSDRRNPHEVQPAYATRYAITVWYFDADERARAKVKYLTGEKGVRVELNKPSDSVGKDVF
Sequence of Aurora B (Q96GD4 whole entry): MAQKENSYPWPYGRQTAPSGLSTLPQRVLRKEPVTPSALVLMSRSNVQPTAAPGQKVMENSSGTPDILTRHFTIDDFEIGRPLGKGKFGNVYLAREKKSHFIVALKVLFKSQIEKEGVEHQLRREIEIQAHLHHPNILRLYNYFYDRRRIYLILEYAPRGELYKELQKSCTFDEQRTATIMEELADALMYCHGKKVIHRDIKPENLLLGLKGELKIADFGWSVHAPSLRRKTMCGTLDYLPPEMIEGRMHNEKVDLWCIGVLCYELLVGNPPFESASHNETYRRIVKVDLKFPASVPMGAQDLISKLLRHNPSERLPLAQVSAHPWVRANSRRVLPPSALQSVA
Sequence of PARP1 (P09874 whole entry, species assumed): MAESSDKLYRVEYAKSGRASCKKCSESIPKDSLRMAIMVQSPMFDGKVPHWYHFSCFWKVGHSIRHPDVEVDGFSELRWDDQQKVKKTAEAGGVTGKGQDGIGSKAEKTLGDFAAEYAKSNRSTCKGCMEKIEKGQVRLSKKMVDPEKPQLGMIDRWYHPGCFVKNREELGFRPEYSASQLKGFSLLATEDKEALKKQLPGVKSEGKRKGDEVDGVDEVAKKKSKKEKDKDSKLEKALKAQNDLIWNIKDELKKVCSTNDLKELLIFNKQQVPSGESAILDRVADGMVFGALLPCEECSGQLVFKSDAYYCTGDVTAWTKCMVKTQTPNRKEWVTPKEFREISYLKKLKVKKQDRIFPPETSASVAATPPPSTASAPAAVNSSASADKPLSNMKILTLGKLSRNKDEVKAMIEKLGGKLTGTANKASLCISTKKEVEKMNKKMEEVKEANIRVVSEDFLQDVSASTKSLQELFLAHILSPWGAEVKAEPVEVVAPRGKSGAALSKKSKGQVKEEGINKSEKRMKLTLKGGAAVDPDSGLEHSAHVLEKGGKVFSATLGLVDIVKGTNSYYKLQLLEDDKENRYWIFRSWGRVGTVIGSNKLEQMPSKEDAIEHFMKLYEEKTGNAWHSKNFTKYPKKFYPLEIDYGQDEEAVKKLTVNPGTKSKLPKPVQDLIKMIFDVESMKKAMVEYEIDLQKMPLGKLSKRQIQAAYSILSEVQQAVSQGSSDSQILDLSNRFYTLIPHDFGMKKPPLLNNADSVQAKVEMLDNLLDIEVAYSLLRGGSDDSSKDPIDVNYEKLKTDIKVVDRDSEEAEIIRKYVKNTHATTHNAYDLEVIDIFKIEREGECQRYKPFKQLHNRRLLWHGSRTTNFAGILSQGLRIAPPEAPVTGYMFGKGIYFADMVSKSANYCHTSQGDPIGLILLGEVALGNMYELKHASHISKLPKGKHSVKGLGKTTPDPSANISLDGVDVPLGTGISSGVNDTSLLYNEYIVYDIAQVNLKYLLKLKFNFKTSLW
Sequence of O6-alkylguanine-DNA-alkyltransferase (P16455 whole entry): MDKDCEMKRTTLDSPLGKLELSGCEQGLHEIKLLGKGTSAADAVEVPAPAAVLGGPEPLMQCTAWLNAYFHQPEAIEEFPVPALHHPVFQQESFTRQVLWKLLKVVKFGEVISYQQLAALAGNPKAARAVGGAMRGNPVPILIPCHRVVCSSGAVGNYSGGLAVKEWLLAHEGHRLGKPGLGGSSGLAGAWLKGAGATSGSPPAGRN

In the case of `Cc1cc(CN2CCN(c3c(Br)cnc4nc(-c5ccc(N6CCN(C)CC6)cc5)[nH]c34)CC2)no1` [CCT137690], the IC50 [1] is listed as 25 nM, the “effect on hERG ion-channel” value [2] is listed as “nM. It has little effect on hERG ion-channel” and the IC50 [3] is listed as 19 nM.
For `CC(C)C[C@H](NC(=O)[C@H](Cc1ccccc1)NC(=O)c1cnccn1)B(O)O` [bortezomib], the viability ([4]; BTZ 5 nM) was “decreased viability”, the “apoptotic markers (cleaved caspase-3, PARP)” value ([5]; BTZ 5 nM) was “increased levels of apoptotic markers” and the IC50 ([6]; read-out: BTZ IC50, RNF5-KD cells (shRNF5), 48 h) was 5.4 nM. For the same compound, the IC50 ([6]; read-out: BTZ IC50, controls (pLKO), 48 h) was 9.6 nM.
In the case of `CCC(CC)(NC(=O)C(C)C)C(=O)N[C@@H](CCCN=C(N)N)C(=O)NC1(C(=O)NC(c2ccc(F)cc2)c2ccc(F)cc2)CCCC1` [MM-102], the IC50 [7] is given as 400 nM.
In the case of `O=c1c(O)c(-c2ccc(O)c(O)c2)oc2cc(O)cc(O)c12` [Quercetin], the IC50 [8] is given as 2400 to 5400 nM.
For `COc1cc([C@@H]2c3cc4c(cc3[C@@H](O[C@@H]3O[C@@H]5CO[C@@H](C)O[C@H]5[C@H](O)[C@H]3O)[C@H]3COC(=O)[C@H]23)OCO4)cc(OC)c1O` [Etoposide], the IC50 ([9]; cell-based cytotoxicity assay) is given as 5.14 nM and the IC50 [10] is given as 2480 nM.
In the case of `Cc1cnc(Nc2ccc(N3CCN(C)CC3)cc2)nc1Nc1cccc(S(=O)(=O)NC(C)(C)C)c1` [TG101209], the IC50 [11] is given as 25 nM and the IC50 [12] is given as 17 nM.
For `COCCCn1c(N)c(C(=O)NC2CCCC2)c2nc3ccccc3nc21` [CAY10591], the TNF-a levels ([13]; at 20 μM) is given as 104 pg/mL and the TNF-a levels ([13]; at 60 μM) is given as 53 pg/mL.
For `Cc1sc2c(c1C)C(c1ccc(Cl)cc1)=N[C@@H](CC(N)=O)c1nnc(C)n1-2` [CPI-203], the IC50 [14] is listed as 37 nM.
For `CCN(CC)Cc1ccc2cc(COC(=O)Nc3ccc(C(=O)NO)cc3)ccc2c1` [Givinostat (ITF2357), Givinostat], the IC50 [15] is listed as 16 nM and the IC50 [16] is listed as 7.5 nM.
In the case of `CN(C)Cc1ccc(-c2nc3cccc4c3n2CCNC4=O)cc1` [AG-14361], the Ki [17] is listed as less than 5 nM and the “fold more potent than the benzamides” value [17] is listed as “is at least 1000-fold more potent than the benzamides”.
For `Cc1cc(Nc2ccc(NC(=O)c3ccc(Nc4ccnc5ccccc45)cc3)cc2)nc(N)n1` [SGI-1027], the IC50 [18] is listed as 7500 nM.
In the case of `Cc1sc2c(c1C)C(c1ccc(Cl)cc1)=N[C@@H](CC(=O)Nc1ccc(O)cc1)c1nnc(C)n1-2` [OTX015], the EC50 [19] is listed as 10 to 19 nM.
For `CCN1CCN(C(=O)Cc2ccc(Nc3ncc(F)c(Nc4ccc(C(=O)Nc5ccccc5Cl)cc4)n3)cc2)CC1` [Aurora A Inhibitor I], the IC50 [20] is listed as 3.4 nM and the “fold selectivity for Aurora A than Aurora B” value [20] is listed as 1000 fold.
For `Cl.O=C([C@@H](Cc1cccc(C(F)(F)F)c1)NS(=O)(=O)c1cc(F)c2c(c1)CCNC2)N1CCCC1` [(R)-PFI-2 (hydrochloride)], the IC50 [21] is given as 2 nM and the “fold selectivity over a panel of 18 other methyltransferases” value [21] is given as “nM) that demonstrates greater than 1,000-fold selectivity”.
For `C/C=C(/C)C(=O)O[C@H]1C(C)=C2[C@H]([C@@H]1OC(=O)CCCCCCC)[C@@](C)(OC(C)=O)C[C@H](OC(=O)CCC)[C@@]1(O)[C@H]2OC(=O)[C@@]1(C)O` [Thapsigargin], the viability ([4]; thapsigargin 100 nM) was “decreased viability of MOLM-13 RNF5-KD cells to a greater extent” and the apoptotic markers ([5]; thapsigargin 1 μM) was “increased apoptotic markers to levels higher than those seen in control cells”.
For `O=C(CCCCCCC(=O)Nc1ccc(I)cc1)NO` [4-iodo-SAHA], the EC50 [22] is given as 120 nM, the EC50 [23] is given as 1100 nM and the EC50 ([24]; proliferation) is given as 950 nM.
For `COc1ccc(-c2nc(N3CCOCC3)c3sc(CN(C)c4ncc(C(=O)NO)cn4)cc3n2)cn1` [CUDC-907], the IC50 [8] is given as 19 nM.
For `Cn1cc(/C=C/C(=O)c2cccc(F)c2)cc1/C=C/C(=O)NO` [MC1568], the IC50 [25] is given as 100 nM and the “fold more selective for HD1-A than HD1-B” value [25] is given as 34 fold.
In the case of SNS-314 Mesylate, the IC50 [3] is listed as 3 nM.
In the case of `O=C(O)CNC(=O)c1c(O)c2ccccc2n(Cc2ccccc2)c1=O` [IOX2], the IC50 [26] is listed as 21 nM and the “fold selectivity over JMJD2A, JMJD2C, JMJD2E, JMJD3, or FIH” value [26] is listed as greater than 100 fold.
In the case of `CCS(=O)(=O)c1cccc(-c2cc(C(=O)NC3CCN(C)CC3)c(C)c3[nH]c4ncc(C)cc4c23)c1` [TAK-901], the IC50 [1] is given as 15 nM.
For `CCc1cc2c(N3CCN(c4nncs4)CC3)ncnc2s1` [MI-nc (hydrochloride)], the IC50 [27] is given as 193000 nM.
For `CC(=O)Nc1ccc(C(=O)Nc2ccccc2N)cc1` [CI-994, N-acetyldinaline], the “viability of shRNF5-expressing cells relative to control WT RNF5 cells” value [28] was “decreased viability of shRNF5-expressing cells”, the “IC50 for CI-994 in terms of cell viability relative to control cells” value [29] was “lower IC50” and the “IC50 for CI-994 in terms of cell viability relative to control cells” value ([6]; RNF5-KD HL-60, 24 h) was “lower IC50”.
In the case of `Nc1nc(OCc2cc(Br)cs2)c2[nH]cnc2n1` [Lomeguatrib], the IC50 [30] is listed as 5 nM.
In the case of `CCCCCOc1ccc(/C=C\c2cccc(O)c2C(=O)O)cc1` [CAY10669], the IC50 [31] is listed as 662000 nM and the “fold improvement in inhibitory potency over anacardic acid” value [31] is listed as 2 fold.
For `Cc1cc(Nc2nn(-c3ccccc3)c(=O)c3ccccc23)n[nH]1` [Phthalazinone pyrazole], the IC50 [9] is given as 1600 nM, the IC50 [32] is given as 2900 nM and the IC50 [33] is given as 7800 nM.
In the case of `CC(C)c1cc2c(N3CCN(C4=NCC(C)(C)S4)CC3)ncnc2s1` [MI-3 (Menin-MLL Inhibitor)], the IC50 [27] is listed as 648 nM.
For `O=C(NCc1ccccc1)c1c(/N=C/c2c(O)ccc3ccccc23)sc2c1CCCC2` [JGB1741], the IC50 [34] is listed as 15000 nM and the IC50 [35] is listed as 512 nM.
For `NC(=O)[C@H](CCCN=C(N)CF)NC(=O)c1ccccc1` [F-Amidine (trifluoroacetate salt), F-Amidine], the IC50 [36] is given as 500 nM, the IC50 [9] is given as 500 nM and the IC50 [37] is given as 350000 nM. The IC50 [38] was 29500 nM and the IC50 ([24]; cytotoxic) was 1000 nM.
For `O=C(/C=C/c1ccc(O)cc1)c1ccc(O)cc1O` [Isoliquiritigenin], the “concentration required to double activity” value [39] is given as 1.8 μM in mouse hepatoma cells.
In the case of `O=C(Nc1ccc(Cl)cc1)C1CCCN(C(=O)c2cc(C(F)(F)F)cc(C(F)(F)F)c2)C1` (stereo not shown) [CCG-100602], the IC50 [40] is given as 9800 nM.
